These results are taken from US6787341B2, “Pharmacological targeting of bacterial DNA ligase for treatment and prevention of bacterial infections” (priority 2001, dated 2004).

Format in all cases: biochemical, Amsacta moorei entomopoxvirus
The target in assay [1] is T1, AmEPV ligase (Betaentomopoxvirus amoorei, UniProt Q9EMK7). Description: Nucleotide cofactor specificity of AmEPV ligase in nick ligation. The method, then: Reaction mixtures (20 μl) containing 50 mM Tris-HCl (pH 7.5), 10 mM (NH4)2SO4, 5 mM DTT, 5 mM MgCl2, 1 pmol of ^32P-labeled nicked DNA, 32 ng of AmEPV ligase, and 50 μM of the indicated nucleotide were incubated for 30 min at 22° C. A control reaction contained no added nucleotide cofactor (none). The reaction products were resolved by polyacrylamide gel electrophoresis. An autoradiogram of the gel is shown.
A low level of nick ligation could be detected in the absence of added nucleotide (FIG. 6). Cofactor-independent ligation was attributed to pre-adenylated ligase in the enzyme preparation. […] Inclusion of NAD^+ in the reaction mixture stimulated nick ligation such that ˜90% of the input substrate molecules were sealed (FIG. 6). […] Indeed, none of the standard rNTPs or dNTPs were able to satisfy the requirement of AmEPV ligase for a high energy cofactor (FIG. 6). […] A Km of 9 μM NAD^+ was calculated from a double-reciprocal plot of the data.

In assay [2] the target is T1, AmEPV ligase. To be noted: for support of ligase activity as divalent cation: 5 mM.
Assay [3] concerns the target T1, AmEPV ligase. The assay is described as follows: Step 3 phosphodiester formation at a pre-adenylated nick by AmEPV ligase. The conditions noted are these: 50 μM NAD+. The method, then: Truncated derivatives of AmEPV ligase deleted for motif Ia (NΔ70) or for the OB and HhH domains (CΔ216) were purified by Ni-agarose and phosphocellulose column cheomtography. FIG. 8A: Aliquots (3 μg) of full-sized AmEPV ligase (WT), NΔ70, and CΔ216 were analyzed by SDS-PAGE. A Coomassie blue-stained gel is shown. The positions and sizes (in kDa) of marker proteins are indicated on the left. FIG. 8B: Ligase adenylation reaction mixtures (20 μl) containing 50 mM Tris-HCl (pH 7.5), 5 mM DTT, 5 mM MgCl2, 1 μM [α-^32P]NAD^+ and 8 pmol of WT AmEPV ligase, NΔ70, or CΔ216 were incubated for 15 min at 22° C. The reaction products were resolved by SDS-PAGE and visualized by autoradiography. The positions and sizes (in kDa) of marker proteins are indicated on the right. FIG. 8C: Ligation of nicked DNA and nicked DNA-adenylate. Reaction mixtures (20 μl) containing 50 mM Tris-HCl (pH 7.5), 10 mM (NH4)2SO4, 5 mM DTT, 5 mM MgCl2, either 200 fmol of ^32P-labeled nicked DNA (pDNA) plus 50 μM NAD^+ or 200 fmol ^32P-labeled nicked DNA-adenylate (AppDNA) and no NAD^+, and 2 pmol of WT AmEPV ligase, NΔ70, or CΔ216 were incubated for 30 min at 22° C. The reaction products were resolved by denaturing PAGE. […]
FIG. 9A: Kinetic analysis of step 3. […] The mixtures were adjusted to 5% glycerol and then analyzed by electrophoresis through a 5% native polyacrylamide gel containing 90 mM Tris-borate, 2.5 mM EDTA. […]

`Nc1ncnc2c1ncn2[C@@H]1O[C@H](COP(=O)(O)OP(=O)(O)OP(=O)(O)O)[C@@H](O)[C@H]1O` [ATP]: the “stimulation of nick ligation as high energy cofactor” value at AmEPV ligase [1] (50 μM nucleotide) is “failed to stimulate”.

Turning to `[Mn+2]` [Manganese], the “support of ligase activity as divalent cation” value (“support of ligase activity” below) at AmEPV ligase [2] is “active, albeit less than magnesium”.

Turning to `NC(=O)c1ccc[n+]([C@@H]2O[C@H](COP(=O)([O-])OP(=O)(O)OC[C@H]3O[C@@H](n4cnc5c(N)ncnc54)[C@H](OP(=O)(O)O)[C@@H]3O)[C@@H](O)[C@H]2O)c1` [NADP], the “stimulation of nick ligation as high energy cofactor” value on AmEPV ligase [1] (50 μM nucleotide) is “inactive”.

Consider `NC(=O)c1ccc[n+]([C@@H]2O[C@H](COP(=O)([O-])OP(=O)(O)OC[C@H]3O[C@@H](n4cnc5c(N)ncnc54)[C@H](O)[C@@H]3O)[C@@H](O)[C@H]2O)c1` [NAD^+], for which the “input substrate molecules sealed with nucleotide included” value at AmEPV ligase [1] (50 μM nucleotide) is on record as about 90%. In addition, the “NAD+ concentration at which nick joining activity plateaued” value on AmEPV ligase [1] (sub-saturating enzyme) was 50 to 100 µM. Further, the “effect on step 3 catalysis by NΔ70” value on AmEPV ligase [3] (NΔ70) is “no effect whatsoever”. Besides, the “decrement in extent of step 3 ligation by wild-type ligase” value at AmEPV ligase [3] (wild-type AmEPV ligase) came to 5 fold.

For `[Ca+2]` [calcium], on AmEPV ligase [2], the “support of ligase activity” value was “did not support ligase activity”.

For `[Co+2]` [cobalt], at AmEPV ligase [2], the “support of ligase activity” value is given as “active, albeit less than magnesium”.

On to `[Cu+2]` [cooper], for which the “support of ligase activity” value at AmEPV ligase [2] was “did not support ligase activity”.

Regarding `[Mg+2]` [magnesium], on AmEPV ligase [2], the “optimal divalent cation concentration for nick joining” value came out at 5 mM.

As to `[Zn+2]` [zinc], the “support of ligase activity” value on AmEPV ligase [2] is “did not support ligase activity”.
